Source: ChEMBL document CHEMBL4602694, “Suppression of Drug-Resistant Non-Small-Cell Lung Cancer with Inhibitors Targeting Minichromosomal Maintenance Protein” (J Med Chem, 2020)
The source made the active and inactive calls. The rule behind the calls is not given here.

Experiments:
[1] = molecular target: T1, DNA replication licensing factor MCM3 (Homo sapiens) (UniProt P25205); assay: Induction of ubiquitination of MCM3 in human NCI-H1975 cells incubated for 24 hrs by immunoblot analysis (reference value: 1); format: cell-based
T1 sequence (whole entry): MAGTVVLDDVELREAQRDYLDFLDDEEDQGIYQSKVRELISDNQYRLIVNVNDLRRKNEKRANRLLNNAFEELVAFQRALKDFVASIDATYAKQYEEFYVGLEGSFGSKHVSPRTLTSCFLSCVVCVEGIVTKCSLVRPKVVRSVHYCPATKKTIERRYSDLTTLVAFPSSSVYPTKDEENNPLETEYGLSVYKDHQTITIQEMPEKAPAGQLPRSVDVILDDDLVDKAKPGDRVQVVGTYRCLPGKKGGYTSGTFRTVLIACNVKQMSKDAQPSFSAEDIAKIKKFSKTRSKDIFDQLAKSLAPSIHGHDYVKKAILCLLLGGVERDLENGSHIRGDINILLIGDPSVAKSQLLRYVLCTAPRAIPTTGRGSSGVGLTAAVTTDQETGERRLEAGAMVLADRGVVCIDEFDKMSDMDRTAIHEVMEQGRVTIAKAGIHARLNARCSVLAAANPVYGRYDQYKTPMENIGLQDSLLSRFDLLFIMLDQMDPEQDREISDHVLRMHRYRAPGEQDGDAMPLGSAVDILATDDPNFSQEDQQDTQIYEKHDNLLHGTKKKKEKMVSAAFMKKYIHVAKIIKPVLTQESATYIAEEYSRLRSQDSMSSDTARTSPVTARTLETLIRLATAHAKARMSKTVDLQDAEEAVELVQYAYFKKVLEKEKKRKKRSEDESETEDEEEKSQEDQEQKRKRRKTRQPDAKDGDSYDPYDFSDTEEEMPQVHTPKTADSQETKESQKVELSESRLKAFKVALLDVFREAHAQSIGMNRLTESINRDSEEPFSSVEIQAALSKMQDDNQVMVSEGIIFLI

[2] = Selectivity index, ratio of IC50 for human bronchial epithelial cells to IC50 for human PC9 cells; format: toxicity; conditions: human bronchial epithelial cells versus PC9 cells, read-out: Ratio IC50
[3] = molecular target: T1, DNA replication licensing factor MCM3 (Homo sapiens); assay: Induction of ubiquitination of MCM3 in human NCI-H1975 cells incubated for 72 hrs by immunoblot analysis (reference value: 1); format: cell-based
[4] = molecular target: DNA replication licensing factor MCM2 (Homo sapiens) (UniProt P49736); assay: Induction of ubiquitination of MCM2 in human NCI-H1975 cells in presence of MLN4924 incubated for 24 hrs followed by MLN4924 addition and measured after 6 hrs by immunoblot analysis; format: cell-based
Chain of DNA replication licensing factor MCM2 (Homo sapiens) (P49736 whole entry): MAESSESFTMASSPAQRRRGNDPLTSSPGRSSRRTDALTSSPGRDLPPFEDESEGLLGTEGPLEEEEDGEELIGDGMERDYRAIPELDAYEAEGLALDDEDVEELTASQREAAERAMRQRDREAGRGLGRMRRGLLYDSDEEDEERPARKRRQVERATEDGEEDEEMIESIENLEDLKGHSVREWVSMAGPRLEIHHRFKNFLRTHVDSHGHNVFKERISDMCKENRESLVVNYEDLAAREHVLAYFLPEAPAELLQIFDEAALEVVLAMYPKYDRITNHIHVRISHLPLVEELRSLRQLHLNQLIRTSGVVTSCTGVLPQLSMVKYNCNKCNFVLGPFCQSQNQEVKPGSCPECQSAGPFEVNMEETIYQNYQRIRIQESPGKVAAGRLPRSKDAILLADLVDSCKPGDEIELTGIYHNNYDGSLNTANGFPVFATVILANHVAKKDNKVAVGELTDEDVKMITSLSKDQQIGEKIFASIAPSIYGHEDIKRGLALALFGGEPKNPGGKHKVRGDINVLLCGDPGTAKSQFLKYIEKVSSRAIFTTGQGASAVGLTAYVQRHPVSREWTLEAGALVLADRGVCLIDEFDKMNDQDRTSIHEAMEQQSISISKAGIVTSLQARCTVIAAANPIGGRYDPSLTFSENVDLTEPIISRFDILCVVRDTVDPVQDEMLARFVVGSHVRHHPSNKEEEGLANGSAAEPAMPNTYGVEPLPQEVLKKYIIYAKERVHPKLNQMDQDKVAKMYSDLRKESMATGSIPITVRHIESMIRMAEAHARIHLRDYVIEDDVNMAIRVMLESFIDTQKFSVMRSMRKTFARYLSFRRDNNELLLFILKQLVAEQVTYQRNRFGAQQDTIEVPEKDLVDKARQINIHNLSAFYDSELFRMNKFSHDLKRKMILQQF

[5] = Toxicity in athymic nude BALB/c mouse xenografted with human NCI-H1975 cells assessed as effect on serum creatinine at 1 or 4 mg/kg, ip administered for 4 weeks; format: organism-based; conditions: in vivo, 672 h
[6] = molecular target: DNA replication licensing factor MCM2 (Homo sapiens) (UniProt P49736); assay: Induction of ubiquitination of MCM2 in human H3255 cells incubated for 24 hrs by immunoblot analysis; format: cell-based; conditions: NCI-H3255
NCI-H1975 [7] = assay: Antitumor activity against human NCI-H1975 cells xenografted in athymic nude BALB/c mouse assessed as tumor growth inhibition at 4 mg/kg, ip administered for 4 weeks relative to control; format: functional; conditions: 672 h, read-out: TGI
[8] = molecular target: DNA replication licensing factor MCM7 (Homo sapiens) (UniProt P33993); assay: Induction of ubiquitination of MCM7 in human NCI-H1975 cells incubated for 24 hrs by immunoblot analysis (reference value: 1); format: cell-based
Chain of DNA replication licensing factor MCM7 (Homo sapiens) (P33993 whole entry): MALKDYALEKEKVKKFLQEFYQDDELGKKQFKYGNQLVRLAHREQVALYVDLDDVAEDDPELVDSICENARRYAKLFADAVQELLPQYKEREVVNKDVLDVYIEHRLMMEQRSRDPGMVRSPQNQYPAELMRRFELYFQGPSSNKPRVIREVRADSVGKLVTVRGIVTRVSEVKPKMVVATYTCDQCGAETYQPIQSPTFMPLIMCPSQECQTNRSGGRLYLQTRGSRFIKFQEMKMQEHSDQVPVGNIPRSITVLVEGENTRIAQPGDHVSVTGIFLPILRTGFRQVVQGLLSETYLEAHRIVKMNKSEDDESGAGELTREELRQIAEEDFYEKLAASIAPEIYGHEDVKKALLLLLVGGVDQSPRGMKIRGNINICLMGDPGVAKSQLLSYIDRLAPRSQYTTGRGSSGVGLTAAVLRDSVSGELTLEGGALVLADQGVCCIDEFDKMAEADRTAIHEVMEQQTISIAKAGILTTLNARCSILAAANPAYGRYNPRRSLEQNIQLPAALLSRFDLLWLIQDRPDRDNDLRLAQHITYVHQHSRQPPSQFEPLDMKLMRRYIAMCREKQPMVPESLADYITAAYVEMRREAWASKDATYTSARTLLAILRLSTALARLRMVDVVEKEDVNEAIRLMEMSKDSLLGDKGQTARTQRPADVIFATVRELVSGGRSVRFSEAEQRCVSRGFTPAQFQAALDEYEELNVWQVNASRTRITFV

NCI-H1975 [9] = assay: Antiproliferative activity against human NCI-H1975 cells knock out SiRNA MCM2 assessed as reduction in cell viability incubated for 72 hrs by SRB assay relative to control; format: functional
[10] = molecular target: T2, DNA replication licensing factor MCM6 (Homo sapiens) (UniProt Q14566); assay: Induction of ubiquitination of MCM6 in human PC9 cells incubated for 24 hrs by immunoblot analysis; format: cell-based; conditions: PC-9
T2 sequence (whole entry): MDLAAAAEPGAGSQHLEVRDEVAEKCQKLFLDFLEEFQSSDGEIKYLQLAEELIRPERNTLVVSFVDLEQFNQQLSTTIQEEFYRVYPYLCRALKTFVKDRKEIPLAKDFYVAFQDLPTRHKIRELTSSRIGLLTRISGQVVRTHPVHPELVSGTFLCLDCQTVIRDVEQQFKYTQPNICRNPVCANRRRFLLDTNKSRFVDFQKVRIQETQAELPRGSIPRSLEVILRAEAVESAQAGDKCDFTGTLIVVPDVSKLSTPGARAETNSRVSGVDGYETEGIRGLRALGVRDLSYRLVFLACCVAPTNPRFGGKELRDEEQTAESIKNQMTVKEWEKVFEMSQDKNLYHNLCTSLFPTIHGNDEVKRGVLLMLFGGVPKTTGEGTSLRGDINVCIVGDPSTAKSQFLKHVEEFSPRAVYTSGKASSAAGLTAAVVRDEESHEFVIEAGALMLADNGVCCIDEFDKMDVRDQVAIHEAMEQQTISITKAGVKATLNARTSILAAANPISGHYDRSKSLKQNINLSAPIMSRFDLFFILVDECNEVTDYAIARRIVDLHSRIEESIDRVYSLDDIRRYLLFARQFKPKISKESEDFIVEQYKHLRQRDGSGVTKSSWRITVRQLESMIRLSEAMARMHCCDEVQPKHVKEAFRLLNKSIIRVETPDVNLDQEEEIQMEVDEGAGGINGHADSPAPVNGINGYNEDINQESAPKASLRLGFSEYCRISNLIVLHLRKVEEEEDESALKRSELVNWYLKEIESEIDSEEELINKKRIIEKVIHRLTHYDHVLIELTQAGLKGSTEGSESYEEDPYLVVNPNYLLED

NCI-H1975 [11] = assay: Induction of apoptosis in human NCI-H1975 cells assessed as increase in cleaved caspase 8 level at 140 nM incubated upto 72 hrs by immunoblotting analysis; format: functional, cell-based
[12] = Selectivity index, ratio of IC50 for human bronchial epithelial cells to IC50 for human NCI-H1975 cells; format: toxicity; conditions: human bronchial epithelial cells versus NCI-H1975 cells, read-out: Ratio IC50
NCI-H1975 [13] = assay: Cell cycle arrest in human NCI-H1975 cells assessed as accumulation in G1/S phase at 140 nM incubated for 48 hrs by DAPI staining based immunofluorescence microscopy; format: functional
NCI-H1975 [14] = assay: Induction of apoptosis in human NCI-H1975 cells assessed as increase in cleaved caspase 3 level at 140 nM incubated upto 72 hrs by immunoblotting analysis; format: functional, cell-based
[15] = molecular target: DNA replication licensing factor MCM2 (Homo sapiens) (UniProt P49736); assay: Induction of ubiquitination of MCM2 in human NCI-H1975 cells incubated for 24 hrs by immunoblot analysis; format: cell-based
NCI-H1975 [16] = assay: Cell cycle arrest in human NCI-H1975 cells assessed as BrdU positive cells at 140 nM incubated for 48 hrs by BrdUrd incorporation assay (reference value: 34 +/- 5.6 %); format: functional
[17] = Toxicity in athymic nude BALB/c mouse xenografted with human NCI-H1975 cells assessed as effect on serum blood urea nitrogen at 1 or 4 mg/kg, ip administered for 4 weeks; format: organism-based; conditions: in vivo, 672 h
NCI-H1975 [18] = assay: Cell cycle arrest in human NCI-H1975 cells assessed as replication fork at 140 nM incubated for 48 hrs by DAPI staining based immunofluorescence microscopy (reference value: 176.8 +/- 8.7); format: functional

## Cc1oc2c(c1C(=O)NCCCn1ccnc1)C(=O)c1ccccc1C2=O
[1]
  Activity: 1.1
[2]
  selectivity ratio: > 10
[3]
  Activity: 0.1
[4]
  Activity: inactive
[5]
  Activity: Non-Toxic
[6]
  Activity: Active
NCI-H1975 [7]
  inhibition in vivo at 4 mg/kg: 59%
[8]
  Activity: 0.8
NCI-H1975 [9]
  inhibition (INH): 33%
[10]
  Activity: Active
NCI-H1975 [11]
  Activity: Active
[12]
  selectivity ratio: > 10
NCI-H1975 [13]
  Activity: Active
NCI-H1975 [14]
  Activity: Active
[15]
  Activity: Dose-dependent effect
NCI-H1975 [16]
  Activity: 16%
[17]
  Activity: Non-Toxic
NCI-H1975 [18]
  Activity: 48.8
